Tested on: micellar dispersion consisting of 5 mM taurocholate, 0.6 mM oleic acid and 0.1 mM radiolabeled cholesterol
Test: In vitro precipitation of cholesterol-carrying bile salt micelles (radioactivity in supernatant after centrifugation; turbidity at 500 nm)
Conditions: for precipitation: at the amount calculated for charge equivalence
Protocol: In order to determine the efficiency of specific cations, an in vitro test was used in which micelles comprising radio labeled cholesterol (cholesterol and micelles were produced according to known methods, see below) were generated. To a predetermined amount of such micelles, the respective precipitant was added in portions, and the precipitation formed upon addition of specific amounts of precipitant measured by two methods, namely by light scattering and by determination of the radioactivity in the supernatant after centrifugation.
A micellar dispersion consisting of 5 mM taurocholate, 0.6 mM oleic acid and 0.1 mM radiolabeled cholesterol was prepared as described before (Schulthess et al., J. Lipid Res. 37, 2405-19 (1996)) using Mg- and Ca-free phosphate-buffered saline (PBS) from Life Technologies, Basel, Switzerland. This stock solution was diluted by adding various amounts of precipitant in PBS, and PBS was added to a final volume of 1 ml. The mixture was shortly vortexed and incubated at room temperature for about 5 min before measuring its optical density (turbidity) at 500 nm. Precipitation (in %) was determined as follows: an aliquot of 200 µl of the incubation mixture was centrifuged for 3 min. at 100'000 g and the radioactivity of 100 µl supernatant was determined in a liquid scintillation counter. The radioactivity of 100 µl of the original mixture was also determined without centrifugation. The precipitation was determined as precipitation (%) = 100 [1-([…])] [formula] • A = radioactivity in supernatant without centrifugation • B = radioactivity in supernatant after centrifugation As a control: the precipitation (%) is determined in the absence of precipitant and a value of precipitation (%) = 2 ± 1 is obtained.

[1] = charge ratio (taurocholate/precipitant) 0.25, PBS
[2] = charge ratio (taurocholate/precipitant) 1, PBS
[3] = charge ratio (taurocholate/precipitant) 0.5, PBS
[4] = charge ratio (taurocholate/precipitant) 2, PBS
[5] = charge ratio (taurocholate/precipitant) 0.2, in PBS
[6] = charge ratio (taurocholate/precipitant) 5, in PBS
[7] = charge ratio (taurocholate/precipitant) 0.1, PBS
[8] = charge ratio (taurocholate/precipitant) 0.165, PBS
[9] = charge ratio (taurocholate/precipitant) 1, in 50 mM Tris-HCl, pH=7.4
[10] = charge ratio (taurocholate/precipitant) 2, in 50 mM Tris-HCl, pH=7.4
[11] = charge ratio (taurocholate/precipitant) 0.3, in 10 mM Arg and 10 mM Lys
[12] = charge ratio (taurocholate/precipitant) 0.3 ± 0.1, PBS
[13] = charge ratio (taurocholate/precipitant) 0.6, in 10 mM Arg and 10 mM Lys
[14] = charge ratio (taurocholate/precipitant) 1.2 ± 0.5, PBS
[15] = charge ratio (taurocholate/precipitant) 3, PBS
[16] = charge ratio (taurocholate/precipitant) 1.4 ± 0.6, PBS

Compound: NCCCC[C@H](N)C(=O)O [Lysine]
- Precipitation (%) [1]: 0%
- Turbidity (OD 500 nm) [1]: 0 OD 500 nm
- Precipitation (%) [2]: 0%
- Turbidity (OD 500 nm) [2]: 0 OD 500 nm

Compound: NCCCCCCCCCCCCN [1,12 Diaminododecane]
- Precipitation (%) (charge ratio (taurocholate/precipitant) 0.125, PBS): 100%
- Turbidity (OD 500 nm) (charge ratio (taurocholate/precipitant) 0.125, PBS, maximal turbidity observed): 0.4 ± 0.05 (max) OD 500 nm
- Precipitation (%) [3]: 65 ± 5%
- Turbidity (OD 500 nm) [3]: 0.02 ± 0.01 OD 500 nm
- Precipitation (%) [2]: 17 ± 4%
- Turbidity (OD 500 nm) [2]: 0.01 ± 0.005 OD 500 nm
- Precipitation (%) [4]: 13 ± 4%
- Turbidity (OD 500 nm) [4]: 0.01 ± 0.005 OD 500 nm

Compound: Mg^2+
- Precipitation (%) [5]: 0%
- Turbidity (OD 500 nm) [5]: 0 OD 500 nm
- Precipitation (%) [6]: 0%
- Turbidity (OD 500 nm) [6]: 0 OD 500 nm

Compound: NCCCCCCN [1,6 Hexanediamine]
- Precipitation (%) [7]: 0%
- Turbidity (OD 500 nm) [7]: 0 OD 500 nm
- Precipitation (%) [8]: 0%
- Turbidity (OD 500 nm) [8]: 0 OD 500 nm

Compound: Ca^2+
- Precipitation (%) (charge ratio (taurocholate/precipitant) 0.2, in 50 mM Tris-HCl, pH=7.4): 0%
- Turbidity (OD 500 nm) (charge ratio (taurocholate/precipitant) 0.2, in 50 mM Tris-HCl, pH=7.4, maximal turbidity observed): 0.23 ± 0.06 (max) OD 500 nm
- Precipitation (%) [5]: 100%
- Turbidity (OD 500 nm) (charge ratio (taurocholate/precipitant) 0.2, in PBS, maximal turbidity observed): 0.25 ± 0.05 (max) OD 500 nm
- Precipitation (%) [9]: 0%
- Turbidity (OD 500 nm) [9]: 0.12 ± 0.03 OD 500 nm
- Precipitation (%) [10]: 0%
- Turbidity (OD 500 nm) [10]: 0.13 ± 0.03 OD 500 nm

Compound: Polylysine [Polylysine Mr = 21600]
- precipitation (Figure 2, equivalence point: poly K = 0.0061 mM): 100%
- Precipitation (%) [11]: 100%
- Turbidity (OD 500 nm) [11]: 1.6 ± 0.2 OD 500 nm
- Precipitation (%) [12]: 100%
- Turbidity (OD 500 nm) [12]: 0.4 ± 0.03 OD 500 nm
- Precipitation (%) [13]: 100%
- Turbidity (OD 500 nm) [13]: 1.3 ± 0.1 OD 500 nm
- Precipitation (%) [14]: 100%
- Turbidity (OD 500 nm) [14]: 0.13 ± 0.05 OD 500 nm

Compound: NCCCCCCCCCCN [1,10 Diaminodecane]
- Precipitation (%) [3]: 0%
- Turbidity (OD 500 nm) [3]: 0 OD 500 nm
- Precipitation (%) [2]: 0%
- Turbidity (OD 500 nm) [2]: 0 OD 500 nm
- Precipitation (%) [15]: 0%
- Turbidity (OD 500 nm) [15]: 0 OD 500 nm

Compound: Polylysine [Polylysine Mr = 2300]
- precipitation (Figure 3, equivalence point: poly K = 0.056 mM): 100%
- Precipitation (%) (charge ratio (taurocholate/precipitant) 0.5 ± 0.1, PBS): 100%
- Turbidity (OD 500 nm) (charge ratio (taurocholate/precipitant) 0.5 ± 0.1, PBS, maximal turbidity observed): 0.9 ± 0.1 (max) OD 500 nm
- Precipitation (%) [16]: 100%
- Turbidity (OD 500 nm) [16]: 0.6 ± 0.2 OD 500 nm

Compound: N=C(N)NCCC[C@H](N)C(=O)O [Arginine]
- Precipitation (%) [1]: 0%
- Turbidity (OD 500 nm) [1]: 0 OD 500 nm
- Precipitation (%) [2]: 0%
- Turbidity (OD 500 nm) [2]: 0 OD 500 nm

— EP1090634A1, “Agents for reducing cholesterol and lipid uptake” (Hauser, Helmut, priority 1999, dated 2001)
